Assay results from patent US20240032541A1, “HERBICIDAL COMPOUNDS” (SYNGENTA CROP PROTECTION AG, priority 2020, published 2024).

Experiments:
Type in all cases: in vivo
[1] = test system: Amaranthus retoflexus (AMARE); assay: Pre-emergence herbicide glasshouse test; settings: pre-emergence (sprayed after one day cultivation), 250 g/ha, evaluated after 13 days
Experimental: (§1) Seeds of a variety of test species are sown in standard soil in pots Amaranthus retoflexus (AMARE), Echinochloa crus-galli (ECHCG), Setaria faberi (SETFA)). After cultivation for one day (pre-emergence) or after 8 days cultivation (post-emergence) under controlled conditions in a glasshouse (at 24/16° C., day/night; 14 hours light; 65% humidity), the plants are sprayed with an aqueous spray solution derived from the formulation of the technical active ingredient in acetone/water (50:50) solution containing 0.5% Tween 20 (polyoxyethelyene sorbitan monolaurate, CAS RN 9005-64-5). Compounds are applied at 250 g/ha unless otherwise stated. The test plants are then grown in a glasshouse under controlled conditions in a glasshouse (at 24/16° C., day/night; 14 hours light; 65% humidity) and watered twice daily. After 13 days for pre and post-emergence, the test is evaluated for the percentage damage caused to the plant. The biological activities are shown in the following table on a five-point scale (5=81-100%; 4=61-80%; 3=41-60%; 2=21-40%; 1=0-20%).

[2] = test system: Setaria faberi (SETFA); assay: Pre-emergence herbicide glasshouse test; settings: pre-emergence (sprayed after one day cultivation), 250 g/ha, evaluated after 13 days
Experimental: as §1

[3] = test system: Echinochloa crus-galli (ECHCG); assay: Pre-emergence herbicide glasshouse test; settings: pre-emergence (sprayed after one day cultivation), 250 g/ha, evaluated after 13 days
Experimental: as §1

[4] = test system: Amaranthus retoflexus (AMARE); assay: Post-emergence herbicide glasshouse test; settings: post-emergence (sprayed after 8 days cultivation), 250 g/ha, evaluated after 13 days
Experimental: as §1

[5] = test system: Setaria faberi (SETFA); assay: Post-emergence herbicide glasshouse test; settings: post-emergence (sprayed after 8 days cultivation), 250 g/ha, evaluated after 13 days
Experimental: as §1

[6] = test system: Echinochloa crus-galli (ECHCG); assay: Post-emergence herbicide glasshouse test; settings: post-emergence (sprayed after 8 days cultivation), 250 g/ha, evaluated after 13 days
Experimental: as §1

SMILES: COc1cnc(Oc2cccc3nc(C(F)(F)F)nc(CCCC(F)(F)F)c23)nc1 [Compound 1.026]
- percentage damage caused to the plant, five-point scale, AMARE [1]: 2 (2=21-40%)
- percentage damage caused to the plant, five-point scale, SETFA [2]: 4 (4=61-80%)
- percentage damage caused to the plant, five-point scale, ECHCG [3]: 4 (4=61-80%)
- percentage damage caused to the plant, five-point scale, AMARE [4]: 4 (4=61-80%)
- percentage damage caused to the plant, five-point scale, SETFA [5]: 4 (4=61-80%)
- percentage damage caused to the plant, five-point scale, ECHCG [6]: 3 (3=41-60%)

SMILES: FC(F)Oc1cnc(Oc2cccc3nc(C(F)(F)F)nc(CCCC(F)(F)F)c23)nc1 [Compound 1.027]
- percentage damage caused to the plant, five-point scale, AMARE [1]: 3 (3=41-60%)
- percentage damage caused to the plant, five-point scale, SETFA [2]: 0
- percentage damage caused to the plant, five-point scale, ECHCG [3]: 2 (2=21-40%)
- percentage damage caused to the plant, five-point scale, AMARE [4]: 4 (4=61-80%)
- percentage damage caused to the plant, five-point scale, SETFA [5]: 1 (1=0-20%)
- percentage damage caused to the plant, five-point scale, ECHCG [6]: 1 (1=0-20%)

SMILES: C=CCCc1nc(C(F)(F)F)nc2cccc(Oc3ncc(Cl)cn3)c12 [Compound 1.028, 4-but-3-enyl-5-(5-chloropyrimidin-2-yl) oxy-2 (trifluoromethyl)quinazoline]
- percentage damage caused to the plant, five-point scale, AMARE [1]: 4 (4=61-80%)
- percentage damage caused to the plant, five-point scale, SETFA [2]: 5 (5=81-100%)
- percentage damage caused to the plant, five-point scale, ECHCG [3]: 5 (5=81-100%)
- percentage damage caused to the plant, five-point scale, AMARE [4]: 5 (5=81-100%)
- percentage damage caused to the plant, five-point scale, SETFA [5]: 4 (4=61-80%)
- percentage damage caused to the plant, five-point scale, ECHCG [6]: 4 (4=61-80%)

SMILES: FC(F)(F)CCCc1nc(Br)nc2cccc(Oc3ncc(Cl)cn3)c12 [Compound 1.029]
- percentage damage caused to the plant, five-point scale, AMARE [1]: 1 (1=0-20%)
- percentage damage caused to the plant, five-point scale, SETFA [2]: 4 (4=61-80%)
- percentage damage caused to the plant, five-point scale, ECHCG [3]: 1 (1=0-20%)
- percentage damage caused to the plant, five-point scale, AMARE [4]: 4 (4=61-80%)
- percentage damage caused to the plant, five-point scale, SETFA [5]: 2 (2=21-40%)
- percentage damage caused to the plant, five-point scale, ECHCG [6]: 1 (1=0-20%)

SMILES: FC(F)(F)CCCc1nc(C2CCCC2)nc2cccc(Oc3ncc(Cl)cn3)c12 [Compound 1.031]
- percentage damage caused to the plant, five-point scale, AMARE [1]: 1 (1=0-20%)
- percentage damage caused to the plant, five-point scale, SETFA [2]: 5 (5=81-100%)
- percentage damage caused to the plant, five-point scale, ECHCG [3]: 5 (5=81-100%)
- percentage damage caused to the plant, five-point scale, AMARE [4]: 4 (4=61-80%)
- percentage damage caused to the plant, five-point scale, SETFA [5]: 3 (3=41-60%)
- percentage damage caused to the plant, five-point scale, ECHCG [6]: 3 (3=41-60%)

SMILES: CCCCCCc1nc(CCCC(F)(F)F)c2c(Oc3ncc(Cl)cn3)cccc2n1 [Compound 1.032]
- percentage damage caused to the plant, five-point scale, AMARE [1]: 4 (4=61-80%)
- percentage damage caused to the plant, five-point scale, SETFA [2]: 4 (4=61-80%)
- percentage damage caused to the plant, five-point scale, ECHCG [3]: 4 (4=61-80%)
- percentage damage caused to the plant, five-point scale, AMARE [4]: 5 (5=81-100%)
- percentage damage caused to the plant, five-point scale, SETFA [5]: 3 (3=41-60%)
- percentage damage caused to the plant, five-point scale, ECHCG [6]: 3 (3=41-60%)

SMILES: CCCc1nc(CCCC(F)(F)F)c2c(Oc3ncc(Cl)cn3)cccc2n1 [Compound 1.033]
- percentage damage caused to the plant, five-point scale, AMARE [1]: 2 (2=21-40%)
- percentage damage caused to the plant, five-point scale, SETFA [2]: 5 (5=81-100%)
- percentage damage caused to the plant, five-point scale, ECHCG [3]: 5 (5=81-100%)
- percentage damage caused to the plant, five-point scale, AMARE [4]: 4 (4=61-80%)
- percentage damage caused to the plant, five-point scale, SETFA [5]: 3 (3=41-60%)
- percentage damage caused to the plant, five-point scale, ECHCG [6]: 3 (3=41-60%)

SMILES: FC(F)(F)CCCc1nc(C2CC2)nc2cccc(Oc3ncc(Cl)cn3)c12 [Compound 1.036]
- percentage damage caused to the plant, five-point scale, AMARE [1]: 2 (2=21-40%)
- percentage damage caused to the plant, five-point scale, SETFA [2]: 5 (5=81-100%)
- percentage damage caused to the plant, five-point scale, ECHCG [3]: 4 (4=61-80%)
- percentage damage caused to the plant, five-point scale, AMARE [4]: 4 (4=61-80%)
- percentage damage caused to the plant, five-point scale, SETFA [5]: 2 (2=21-40%)
- percentage damage caused to the plant, five-point scale, ECHCG [6]: 3 (3=41-60%)

SMILES: Cc1nc2cccc(Oc3ncc(Cl)cn3)c2c(CCCC(F)(F)F)c1C#N [Compound 1.043, 5-(5-chloropyrimidin-2-yl) oxy-2-methyl-4-(4,4,4-trifluorobutyl) quinoline-3-carbonitrile]
- percentage damage caused to the plant, five-point scale, AMARE [1]: 0
- percentage damage caused to the plant, five-point scale, SETFA [2]: 2 (2=21-40%)
- percentage damage caused to the plant, five-point scale, ECHCG [3]: 1 (1=0-20%)
- percentage damage caused to the plant, five-point scale, AMARE [4]: 2 (2=21-40%)
- percentage damage caused to the plant, five-point scale, SETFA [5]: 2 (2=21-40%)
- percentage damage caused to the plant, five-point scale, ECHCG [6]: 1 (1=0-20%)

SMILES: Cc1ccc(Oc2ncc(Cl)cn2)c2c(CCCC(F)(F)F)nc(C(F)(F)F)nc12 [Compound 1.046, 5-(5-chloropyrimidin-2-yl)oxy-8-methyl-4-(4,4,4-trifluorobutyl)-2-(trifluoromethyl)quinazoline]
- percentage damage caused to the plant, five-point scale, AMARE [1]: 2 (2=21-40%)
- percentage damage caused to the plant, five-point scale, SETFA [2]: 3 (3=41-60%)
- percentage damage caused to the plant, five-point scale, ECHCG [3]: 2 (2=21-40%)
- percentage damage caused to the plant, five-point scale, AMARE [4]: 4 (4=61-80%)
- percentage damage caused to the plant, five-point scale, SETFA [5]: 2 (2=21-40%)
- percentage damage caused to the plant, five-point scale, ECHCG [6]: 3 (3=41-60%)

SMILES: CC(C)c1nc(CCCC(F)(F)F)c2c(Oc3ncc(Cl)cn3)cccc2n1 [Compound 1.050, 5-(5-chloropyrimidin-2-yl)oxy-2-isopropyl-4-(4,4,4-trifluorobutyl)quinazoline]
- percentage damage caused to the plant, five-point scale, AMARE [1]: 5 (5=81-100%)
- percentage damage caused to the plant, five-point scale, SETFA [2]: 5 (5=81-100%)
- percentage damage caused to the plant, five-point scale, ECHCG [3]: 5 (5=81-100%)
- percentage damage caused to the plant, five-point scale, AMARE [4]: 5 (5=81-100%)
- percentage damage caused to the plant, five-point scale, SETFA [5]: 3 (3=41-60%)
- percentage damage caused to the plant, five-point scale, ECHCG [6]: 2 (2=21-40%)
